# In patent publication US8492614B2, “Plant biochemical systems and uses thereof” (The Board of Trustees of the University of Illinois, priority 2007, dated 2013):
# “Also recorded” adds a separate entry of the source.
# T1: PD1 (Arabidopsis thaliana, UniProt Q9ZUY3)
# T1 construct: Full-length GPA1 and PD1 templates were amplified, prepared, and purified by the methods described; made in house; host or cells: cell-free: TNT T7 coupled wheat germ extract system (Promega)
# T1 sequence (Q9ZUY3 25-424): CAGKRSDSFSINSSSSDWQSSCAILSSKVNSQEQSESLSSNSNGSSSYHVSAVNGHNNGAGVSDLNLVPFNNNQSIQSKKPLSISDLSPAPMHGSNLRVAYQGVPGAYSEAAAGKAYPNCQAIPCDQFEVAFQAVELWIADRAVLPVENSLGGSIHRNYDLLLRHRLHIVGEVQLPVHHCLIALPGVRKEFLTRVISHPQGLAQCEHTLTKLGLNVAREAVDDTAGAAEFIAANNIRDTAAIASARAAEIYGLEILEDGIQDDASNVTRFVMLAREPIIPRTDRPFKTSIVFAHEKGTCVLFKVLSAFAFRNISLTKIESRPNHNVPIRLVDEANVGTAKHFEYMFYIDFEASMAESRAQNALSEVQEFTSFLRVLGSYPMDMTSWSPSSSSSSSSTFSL
# T1 sequence (P18064 1-383 partner): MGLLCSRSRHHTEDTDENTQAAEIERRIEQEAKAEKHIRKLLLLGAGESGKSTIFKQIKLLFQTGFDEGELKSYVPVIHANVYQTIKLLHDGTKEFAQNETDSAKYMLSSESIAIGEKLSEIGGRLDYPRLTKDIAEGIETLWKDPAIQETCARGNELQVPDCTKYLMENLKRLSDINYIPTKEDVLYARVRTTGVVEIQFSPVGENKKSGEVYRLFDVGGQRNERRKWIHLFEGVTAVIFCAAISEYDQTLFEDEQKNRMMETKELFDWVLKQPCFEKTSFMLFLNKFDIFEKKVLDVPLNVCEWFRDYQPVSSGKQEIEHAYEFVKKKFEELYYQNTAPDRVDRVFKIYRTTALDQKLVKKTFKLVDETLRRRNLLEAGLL
# B1: activated GPA1: Arabidopsis G-protein Gα subunit made by in vitro transcription/translation, activated with GTPγS (protein, UniProt P18064 2-383, looked up)
# Guanine nucleotide-binding …: GLLCSRSRHHTEDTDENTQAAEIERRIEQEAKAEKHIRKLLLLGAGESGKSTIFKQIKLLFQTGFDEGELKSYVPVIHANVYQTIKLLHDGTKEFAQNETDSAKYMLSSESIAIGEKLSEIGGRLDYPRLTKDIAEGIETLWKDPAIQETCARGNELQVPDCTKYLMENLKRLSDINYIPTKEDVLYARVRTTGVVEIQFSPVGENKKSGEVYRLFDVGGQRNERRKWIHLFEGVTAVIFCAAISEYDQTLFEDEQKNRMMETKELFDWVLKQPCFEKTSFMLFLNKFDIFEKKVLDVPLNVCEWFRDYQPVSSGKQEIEHAYEFVKKKFEELYYQNTAPDRVDRVFKIYRTTALDQKLVKKTFKLVDETLRRRNLLEAGLL
# modifications: GTPγS-bound
# How the values were obtained:
# Lhcb expression = assay: Lhcb RNA levels by northern analysis after ABA treatment of etiolated seedlings; format: in vivo, Arabidopsis; conditions: 800 nM ABA
# Description: Six-d-old dark-grown Arabidopsis seedlings col wild type or insertion mutants were grown on 0.8% agarose plates containing only 0.5× Murashige and Skoog media as described in Lapik and Kaufman (2003). The growth media contains no additional sugar, hormones, vitamins or other nutrients. Seedlings were irradiated with a single pulse (10 s) of low fluence BL (total fluence of 10^2 μmol m^−2); or a single pulse (100 s) of saturation fluence BL (total fluence of 10^4 μmol m^−2); or no light (DK), and/or, treated with 800 nM ABA dissolved in ethanol, or ethanol alone, placed back in the dark for two h after which total RNA was extracted and used for northern blot analysis (Lapik and Kaufman, 2003). Lhcb and rDNA probes used, quantitation methods, and means of normalization to rRNA levels are described elsewhere (Marrs and Kaufman, (1991) Planta 183: 327-333). […] All induction data is correct for loading through the quantitation of the rRNA as described (Warpeha and Kaufman, (1990) Planta 182: 553-558). […] Real time quantitative PCR (qPCR) was used to measure the level of Lhcb RNA induction in response to a single pulse of low fluence blue light as a confirmation of the Northern blot analysis methods. […] The qPCR-derived information (4 different RNA sets of Dark and BL-treated) data was analyzed using (ΔΔCoT). […]
# [1] = test system: etiolated Arabidopsis seedlings; assay: Cotyledon natural fluorescence by deconvoluting microscopy; format: in vivo; conditions: hormone applied to etiolated cotyledons; 24 h; 1.0 μM ABA, 500 μM JA
# Description: Fluorescent images were obtained of living unfixed seedlings 24 h post BL or ABA treatment as described in the “Plant Growth and Preparation of Tissue” section. Optical sectioning was achieved by using a Zeiss Axiovert 200M microscope (Carl Zeiss), equipped with ApoTome (collected by grid projection), and a digital camera and the 4#,6-diamino-phenylindole, fluorescein isothiocyanate, and Texas Red filter sets (Chroma). Photographs of whole cotyledon fluorescence were snapped on the same microscope set up, minus the apoTome setting.
# The preparation of whole cell extracts from the areal portions of the seedlings for the quantification of Phe levels and PD1 activity levels is described in (Warpeha et al., Plant Physiol. 143:1590-1600, 2007). Phe concentration is determined by HPLC. […] Natural fluorescence of the cotyledons is visualized and quantitated by deconvoluting microscopy using a “DAPI-Long Pass” filter which allows excitation between 300-380 nm and emits with a cutoff […] 400 nm.
# If the Phe produced by activated PD1 is necessary for the ability of young etiolated seedlings to respond to UV-B, salt or heat stress, then it is possible that the addition of exogenous Phe (effectively cross feeding Phe) could restore a wild type response to GCR1, GPA1 and PD1 mutants when assayed for cotyledon fluorescence and the ability to survive sub-lethal levels of UV-C. To determine if exogenous Phe can restore wild type responses to GCR1, GPA, and PD1 mutants, 1 mM Phe is added to the top agar during planting and the experiment described above specifically testing for cotyledon surface fluorescence and the ability to survive sub-lethal levels of UV-C is repeated. Serine and […] are used as negative controls in these assays.
# The experiments described above for examining if GCR1, GPA1 and PD1 are required for young etiolated seedlings to respond to UV-B, salt or heat stress are performed but with ABA, ACC, JA and SA substituting for UV-B, salt and heat. For these experiments, ABA is tested at 1.0 μM dissolved in ethanol and applied as an atomized mist. […]
# PD1 [2] = assay: Cytosolic PD1 activity after ABA treatment of etiolated seedlings; format: in vivo, Arabidopsis; conditions: ABA treatment of etiolated wild type
# Text: Activated GPA1 has a specific physical interaction with PD1 that results in a significant increase in PD1 activity. PD1 is the only member of the PD family that is expressed in etiolated Arabidopsis. […] The increase in PD1 activity in response to BL or ABA treatment also requires GCR1. BL Irradiation or ABA treatment of pd1, gcr1 and gpa1 T-DNA insertion mutants result in none of these events described for wt. We conclude that GCR1, GPA1 and PD1 form a signaling chain that is responsible for ABA and BL induced synthesis of phenylpyruvate, phenylalanine and a series of UV absorbing products from the phenylpropanoid pathway. In etiolated seedlings phenylalanine is synthesized via a phenylpyruvate intermediate, much like in bacteria and fungi, and not via an arogenate pathway (Warpeha et al., Plant Physiol. 140:844-855).
# All plants are returned to complete darkness for two hours after which cytosolic extracts are prepared and assayed as described infra.
# [3] = Stability of absorbance spectra of cell free extracts with or without phenylalanine; format: physicochemical, Arabidopsis; conditions: cell free extracts in buffer; 24 h, room temperature or +4° C., lab lighting
# Description: Cell free extracts were left at room temperature for 24 h after a 10^5 μmol m^−2 treatment of UV (366 nm) in lab lighting (which is fluorescent).
# PD1 [4] = target: T1, PD1; assay: In vitro GPA1-PD1 activation assay; format: biochemical; conditions: compared with inactive (GDP or GDPβS) or no GPA1
# Description: Full-length GPA1 and PD1 templates were amplified, prepared, and purified by the methods described (Lapik and Kaufman, 2003). GPA1 and PD1 proteins were individually produced by coupled in vitro transcription/translation using TNT T7 coupled wheat germ extract system (Promega). In vitro association assays were conducted by mixing approximately equimolar concentrations of GPA1 with PD1 in PD assay buffer at 4° C. with modifications for plants: 50 mM K2PO4 pH 7.5, 1.0 mM dithiothreitol, […], and 0.5% protease inhibitor cocktail for plants. Activated GPA1 was achieved by preincubation with […] (a nonhydrolyzable GTP analog). Inactivated GPA1 was achieved by preincubation with GDP, or GDPγS (a nonhydrolyzable GDP analog). […] Reaction mixtures were stopped at time zero and various time points thereafter by adding 0.5 volume of 1N NaOH.
# The increase in activity occurs quickly as approximately 90% of the measured increase in activity occurs within the first 10 min of incubation.
molecule,measurement,setting,value
"CC1=CC(=O)CC(C)(C)[C@@]1(O)/C=C/C(C)=C\C(=O)O [ABA, abscisic acid]",Lhcb RNA accumulation in mutant seedlings,"Lhcb expression; gcr1, gpa1, prn1, nf-y-b9, nf-y-a5 mutants",fails to induce Lhcb RNA accumulation
same,Lhcb expression in wild type seedlings,Lhcb expression; six-d-old etiolated wild type,induces Lhcb expression
same,accumulation of UV- and BL-absorbing fluorescent material in cotyledons,[1],"phenotype identical to that observed in wild-type seedlings for BL irradiation; also recorded: response pattern is identical to that of UV-B, salt and heat"
same,cytosolic PD1 activity,PD1 [2],increase in cytosolic PD1 activity
"CC/C=C\C[C@H]1C(=O)CC[C@@H]1CC(=O)O [JA, jasmonic acid, reference compound]",accumulation of UV- and BL-absorbing fluorescent material in cotyledons,[1],"response pattern is identical to that of UV-B, salt and heat"
"CSCC[C@H](N)C(=O)O [L-methionine, reference compound]","stability of the extract solution (absorbance spectra, pigments) over time",[3],did not increase stability of the solution
B1,increase in PD1 activity,PD1 [4],2 fold
